Values quoted from earlier work in patent US20050159419A1, “Compositions of a cyclooxygenase-2 selective inhibitor and a central nervous system stimulant for the treatment of central nervous system damage” (Pharmacia Corporation, priority 2003, published 2005).

Columns and labels:
human stroke victims = details: coupled with physical therapy, compared to stroke victims receiving only physical therapy

CC(N)Cc1ccccc1 (centres unmarked) [amphetamine]
alternative circuit activation (infarcted rats): promoted alternative circuit activation
motor recovery (human stroke victims): accelerated motor recovery
